Experimental data published in ChEMBL document CHEMBL5727699, “Pyrimido-pyridazinone compounds and methods of use thereof” (2020).
pIC50: −log10 of the molar value.

Target: Tyrosine-protein kinase JAK2 (Homo sapiens, UniProt O60674)
Assay: Thirteen μL of assay buffer in blank and substrate control wells and 13 μL of Enzyme buffer mix in positive and test wells was added. The reaction mixture was incubated for 30 minutes at RT on a plate shaker. […] The reaction plate was incubated for 60 minutes at RT on a plate shaker. The reaction was stopped by adding 40 mM EDTA (10 μL) in buffer. Ten μL of antibody was added to all the wells.

Sequence of Tyrosine-protein kinase JAK2 (O60674 whole entry): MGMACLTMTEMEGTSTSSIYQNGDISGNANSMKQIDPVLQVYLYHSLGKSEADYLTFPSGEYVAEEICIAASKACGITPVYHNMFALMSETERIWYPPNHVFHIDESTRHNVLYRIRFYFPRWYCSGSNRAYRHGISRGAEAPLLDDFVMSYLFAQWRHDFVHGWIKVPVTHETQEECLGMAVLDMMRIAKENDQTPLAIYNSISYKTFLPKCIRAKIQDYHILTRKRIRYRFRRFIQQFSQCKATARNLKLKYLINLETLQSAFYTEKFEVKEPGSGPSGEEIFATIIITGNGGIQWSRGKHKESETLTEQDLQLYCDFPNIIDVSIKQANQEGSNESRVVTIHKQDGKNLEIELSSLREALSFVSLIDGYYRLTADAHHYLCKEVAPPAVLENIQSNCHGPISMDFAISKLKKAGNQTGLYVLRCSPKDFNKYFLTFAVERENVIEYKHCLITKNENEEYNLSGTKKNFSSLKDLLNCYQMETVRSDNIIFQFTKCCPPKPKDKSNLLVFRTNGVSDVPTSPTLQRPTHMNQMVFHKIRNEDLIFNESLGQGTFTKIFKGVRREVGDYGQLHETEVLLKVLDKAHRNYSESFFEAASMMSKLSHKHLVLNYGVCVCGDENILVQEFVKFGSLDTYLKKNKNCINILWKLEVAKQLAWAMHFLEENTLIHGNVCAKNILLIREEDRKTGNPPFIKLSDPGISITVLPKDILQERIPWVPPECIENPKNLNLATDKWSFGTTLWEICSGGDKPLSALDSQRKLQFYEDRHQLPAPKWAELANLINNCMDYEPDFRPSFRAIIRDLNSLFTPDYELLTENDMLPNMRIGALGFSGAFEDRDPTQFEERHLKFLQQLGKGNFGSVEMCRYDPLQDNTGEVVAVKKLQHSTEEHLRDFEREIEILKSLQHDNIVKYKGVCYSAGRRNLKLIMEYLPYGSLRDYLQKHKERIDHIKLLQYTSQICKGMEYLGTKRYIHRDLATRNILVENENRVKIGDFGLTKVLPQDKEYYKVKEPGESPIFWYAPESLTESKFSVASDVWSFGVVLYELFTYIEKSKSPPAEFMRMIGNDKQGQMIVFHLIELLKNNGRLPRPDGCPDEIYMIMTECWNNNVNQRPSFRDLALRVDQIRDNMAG

- pIC50: < 7.00
SMILES: CC(C)(C#N)N1CCN(c2ccc(Nc3nc(N4CCCCCC4)nc4cn[nH]c(=O)c34)cc2)CC1
